Reference: patent US7132286B2, “Method for neural stem cell differentiation using valproate” (Psychiatric Genomics, Inc., priority 2001, dated 2006)

B1: NT-3: Neurotrophin-3 (R & D Systems) (protein, UniProt P20783 139-257, looked up)
Neurotrophin-3: YAEHKSHRGEYSVCDSESLWVTDKSSAIDIRGHQVTVLGEIKTGNSPVKQYFYETRCKEARPVKNGCRGIDDKHWNSQCKTSQTYVRALTSENNKLVGWRWIRIDTSCVCALSRKIGRT
B2: BDNF: brain-derived neurotrophic factor (R & D Systems), known promoter of neural stem cell differentiation (protein, UniProt P23560 19-247, looked up)
Neurotrophic factor BDNF …: APMKEANIRGQGGLAYPGVRTHGTLESVNGPKAGSRGLTSLADTFEHVIEELLDEDQKVRPNEENNKDADLYTSRVMLSSQVPLEPPLLFLLEEYKNYLDAANMSMRVRRHSDPARRGELSVCDSISEWVTAADKKTAVDMSGGTVTVLEKVPVSKGQLKQYFYETKCNPMGYTKEGCRGIDKRHWNSQCRTTQSYVRALTMDSKKRIGWRFIRIDTSCVCTLTIKRGR

Columns and labels:
[1] = literature; cited from earlier work
[2] = literature; cited from earlier work; remark: listed apart in the source
rat cortical stem cells [3] = assay: Neuronal differentiation of rat cortical stem cells (β-tubulin III immunofluorescence, cell counting); type: cell-based; conditions: rat cortical stem cells; for effect on neuronal differentiation (percentage of β-tubulin-III expressing cells) in words: 6 days, vs control; for percentage of β-tubulin III expressing neurons (mean+SD): daily treatment 6 days, 10 ng/ml BDNF, 20 ng/ml NT-3, untreated control 6.2+1.8%
Text: Isolation of cortical and striatal stem cells. Timed pregnant Sprague Dawley rats were obtained from Taconic at embryonic age E14–E15 were sacrificed by inhalation of excess carbon dioxide. The abdomen of the rat was cleaned with 70% ethanol and the uterus was removed quickly and aseptically on the bench top. The uterus was placed in ice cold HBSS (GIBCO Cat. #20012-027) in a 10 cm petridish. After rinsing the uterus in PBS, embryos were removed from the uterus, rinsed in HBSS and collected in cold HBSS (buffered with HEPES and sodium bicarbonate) in a 10 cm petridish and placed on ice.
Plating, expansion and passaging of cortical and striatal stem cells. A generous amount of the triturated cell suspension was left in the original 15 ml tube to avoid fibroblast contamination in cultures. About 4–5 ml of the 6 ml of cells suspension was used for plating. Cells were plated at a concentration of 1.3×10^3 cells to 3.0×10^3 per cm^2 in 100 mm dish. This culture is designated P0 (passage 0).
(§1) Following plating cells were expanded for about 3–4 days (Passage 1, P1). Cells were treated daily with 10 ng/ml bFGF. The cultures were never permitted to reach more than 70% confluency. Cultures were then passaged as follows: 10 ml of HBSS without Ca^2+ and Mg^2+ was added to each 100 mm dish and the cells incubated at 37° C. for 5–15 minutes, or until sufficient numbers of the stem cells were rounded up. It is not expected that all cells in the culture will round up as there are several cell types in the culture at P0. The pH of the HBSS should be neutral at all times during this incubation. Cells were then removed from the dish by pipetting with a 5 ml pipette, and collected in a 15 or 50 ml conical tube, and centrifuged at 1000 g for 5 minutes. Cells were gently re-suspended in medium, counted, and plated at a density of 1×10^6 cells in 10 cm dishes and expanded for about 2 days in bFGF (Passage 1, P1). At that time the cells were passaged as described and plated onto pre-coated poly-L-ornithine/fibronectin vessels at concentrations indicated below for each experiment. Cells were treated with bFGF for 2 additional days. Before each treatment the bFGF was removed from the cells by washing twice with DMEM/F 12 to induce cell differentiation. For neurite outgrowth experiments, cells were seeded at 5×10^3 cells/well in 24-well plates and treated immediately.
(§2) Drug treatment. For immunofluorescence and Western analysis, cells were treated daily with either 0.5 mM of valproate (Sigma), 10 ng/ml of BDNF (R & D Systems), 20 ng/ml of NT-3 (R & D Systems), 1 nM 9cis retinoic acid (Sigma) or a dilution of NCM for 6 or 7 days. In some experiments valproate was also added with NCM and/or 9cis RA for 7 days. For human stem cell experiments, valproate (0.5 mM) or BDNF (25 ng/ml) was added for 9 days. For neurite outgrowth experiments, cells were treated for 1 day with 0.5 mM valproate or 50 ng/ml of BDNF. Where applicable, medium was changed every 2 days. After about 5–10 days, preferably on day 6 (i.e., after 6 days of drug exposure) the cells were fixed with a 4% solution of para-formaldehyde (PFA) in PBS, prepared as follows:
Immunofluorescent staining and visualization. Cells were plated at 20,000 cells/well in poly-L-ornithine/fibronectin (1 mg/ml) coated 24-well plates. After fixation, the PBS was aspirated from the fixed cells and the cells were treated with blocking solution (10% normal goat serum-NGS-Jackson Labs), 0.3% Triton-Sigma, in PBS) to saturate non-specific sites and permeabilize the cells. […]

[4] = tested on: human striatal stem cells (line 161); assay: Neuronal differentiation of human striatal stem cells (β tubulin III neurons, total cells); type: cell-based; conditions: 9 days, 0.5 mM valproate, BDNF 25 ng/ml, untreated control 40%
Protocol: Expansion and differentiation of striatal human stem cells. Human stem cells were provided from ReNeuron Inc. (U.K.). Striatum was obtained after 6 to 12 weeks of gestation from routine legal abortion. Cell line was provided by ReNeuron at passage 16. The stem cells were expanded in untreated 25 cm^2 tissue culture flasks (Nunc, USA) in the presence of 20 ng/ml and 10 ng/ml of human recombinant EGF and bFGF respectively, in NSA basal serum-free medium (Euroclone, U.K). Fresh medium and growth factors were added every 3 days. In these conditions stem cells were growing as floating neurospheres. After 4 weeks, the neurospheres were harvested, treated with a mild papain treatment in HBSS and dissociated into a single cell suspension. Cells were counted and viability was estimated by trypan blue exclusion method. Cells were differentiated by growth factors removal. The cells were plated in NSA medium at 20,000 cells/well on LabTek permanox culture slides of 8 wells precoated with laminin (1 μg/ml). Cells were treated with valproate and BDNF for 9 days at 37° C. and a saturated humidified atmosphere of 5% CO2, 1% O2 and 94% N2. Fresh medium and re-treatment with factors was performed every 3 days.
as §2
Immunofluorescent staining and visualization. Cells were plated at 20,000 cells/well in poly-L-ornithine/fibronectin (1 mg/ml) coated 24-well plates. […]
For counting, three to five different fields of interest at magnification 10× or 20× were chosen randomly. For immunofluorescence, 3 different black and white pictures were taken by field of interest with a digital camera CoolSnap Fx (Princeton) corresponding to the exposure of Cy2, Cy3 and Hoechst fluorescence. […] The percentage of neurons, astrocytes and GABAergic cells was determined by comparing the number of cells immunopositive for β-tubulin III, GFAP and GABA to the number of bis-benzamide stained nuclei (i.e., total cell number). […]

rat cortical stem cells [5] = assay: Neurite outgrowth of neurons derived from rat cortical stem cells (ArrayScan neurite outgrowth index); type: cell-based; conditions: 1 day; 0.5 mM valproate, 50 ng/ml BDNF; control 35.1+0.3
Protocol: as §1, with “At that time the cells were passaged as described and plated onto pre-coated poly-L-ornithine/fibronectin vessels at concentrations indicated below for each experiment. Cells were treated with bFGF for 2 additional days. Before each treatment the bFGF was removed from the cells by washing twice with DMEM/F 12 to induce cell differentiation. For neurite outgrowth experiments, cells were seeded at 5×10^3 cells/well in 24-well plates and treated immediately.” left out
For analysis of neurite outgrowth, digital images were taken with an ArrayScan HCS System (Cellomics, Pa.) of 100 cells/well treated with valproate (0.5 mM) and BDNF (50 ng/ml) for 1 day. […] Neurite outgrowth index is defined as the percentage of cells whose neurites total more than 20 μm in length, and is calculated using Cellomics' Neurite Outgrowth application.

Molecule	teratogenic activity [1]	effect on proliferation and differentiation [2]	also measured
CCCCC(CCCC)C(=O)O [2-butylhexnoic acid]	in vivo teratogenic activity	inhibit proliferation and enhance differentiation	–
CCC=C(CCC)C(=O)O [2-en-valproate]	Non-teratogenic	have not been shown to affect differentiation	–
CCCCC(CC)C(=O)O (stereo not drawn) [2-ethylhexanoic acid]	in vivo teratogenic activity	inhibit proliferation and enhance differentiation	–
CCCCC(CCC)C(=O)O (stereo not drawn) [2-propylhexanoic acid]	in vivo teratogenic activity	inhibit proliferation and enhance differentiation	–
CCCC(CC(C)C)C(=O)O (stereo not drawn) [4 methyl-valproate]	Non-teratogenic	have not been shown to affect differentiation	–
CC1=C(/C=C/C(C)=C\C=C\C(C)=C\C(=O)O)C(C)(C)CCC1 [9-cis RA, 9-cis retinoic acid]	–	–	neuronal differentiation compared to control, in words (rat cortical stem cells [3]; daily treatment 7 days, 0.5 mM valproate, 0.5× NCM, 1 nM 9-cis RA): increased the neuronal differentiation
C#CC[C@H](CCC)C(=O)O [(s)-4-yn-valproate]	in vivo teratogenic activity	inhibit proliferation and enhance differentiation	–
C#CCC(CCC)C(=O)O (stereo not drawn) [R-4-yn-valproate]	Non-teratogenic	have not been shown to affect differentiation	–
B1	–	–	effect on neuronal differentiation (percentage of β-tubulin-III expressing cells) in words (rat cortical stem cells [3]): didn't have any effect; percentage of β-tubulin III expressing neurons (mean+SD) (rat cortical stem cells [3]; 0.5 mM valproate): 8+1%
B2	–	–	effect on neuronal differentiation (percentage of β-tubulin-III expressing cells) in words (rat cortical stem cells [3]): increased the percentage of β-tubulin-III expressing cells over control but was less effective than valproate; percentage of β-tubulin III expressing neurons (mean+SD) (rat cortical stem cells [3]; 0.5 mM valproate): 12.7+2%; neuronal differentiation [4]: 58%; neurite index (percentage of cells whose neurites total more than 20 μm in length) (rat cortical stem cells [5]): 38.3+1
